{"source": "patent US20250340591A1", "about": "“COMPOSITION FOR PREVENTING OR TREATING INFLAMMATORY BOWEL DISEASE CONTAINING NOVEL COMPOUND” (ANYGEN CO., LTD., priority 2021, published 2025)", "molecular_target": "T1, GPR39 (Homo sapiens, UniProt O43194)", "T1 sequence (O43194 1-453)": "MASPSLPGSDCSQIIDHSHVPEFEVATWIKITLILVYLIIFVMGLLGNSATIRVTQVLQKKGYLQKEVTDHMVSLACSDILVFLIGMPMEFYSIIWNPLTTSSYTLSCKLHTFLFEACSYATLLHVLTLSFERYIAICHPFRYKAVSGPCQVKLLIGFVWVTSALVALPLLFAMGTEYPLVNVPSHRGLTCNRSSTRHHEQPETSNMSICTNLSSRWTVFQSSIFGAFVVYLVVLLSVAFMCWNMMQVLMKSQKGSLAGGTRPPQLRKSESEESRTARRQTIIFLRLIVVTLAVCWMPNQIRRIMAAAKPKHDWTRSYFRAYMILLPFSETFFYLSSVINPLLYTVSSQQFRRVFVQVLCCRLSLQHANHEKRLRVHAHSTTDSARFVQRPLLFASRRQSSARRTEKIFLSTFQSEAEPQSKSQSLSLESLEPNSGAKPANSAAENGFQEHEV", "assay": "luciferase assay system (SRE luciferase reporter gene, CV-1 cells expressing GPR39)", "assay_type": "cell-based", "set-up": "expressed in transfected cells; host or cells: CV-1 fibroblast cell line (Korea Cell Line Bank), adenoviral transduction at 50 MOI", "note": "Square brackets hold non-standard residues; d marks the D form. Peptide text beside a SMILES is read from it. * marks the point of attachment. His(Trt) = N[C@@H](Cc1cn(C(c2ccccc2)(c2ccccc2)c2ccccc2)cn1)C(=O)O; dHis(Trt) = N[C@H](Cc1cn(C(c2ccccc2)(c2ccccc2)c2ccccc2)cn1)C(=O)O; dPhe(4-Br) = N[C@H](Cc1ccc(Br)cc1)C(=O)O; dPhe(4-Cl) = N[C@H](Cc1ccc(Cl)cc1)C(=O)O; dPhe(4-F) = N[C@H](Cc1ccc(F)cc1)C(=O)O; Palmitoyl = CCCCCCCCCCCCCCCC(=O)*; Myristoyl = CCCCCCCCCCCCCC(=O)*; Lauroyl = CCCCCCCCCCCC(=O)*; Decanoyl = CCCCCCCCCC(=O)*; Octanoyl = CCCCCCCC(=O)*"}
{"smiles": "CCCCCCCC(=O)NCCCC[C@H](NC(=O)[C@@H](N)CC1=CN(CCc2ccccc2)CN1CCc1ccccc1)C(=O)N[C@@H](Cc1ccccc1)C(=O)N[C@@H](Cc1ccc(O)cc1)C(=O)O", "note": "[HKFY-6, N2-((S)-2-amino-3-(1,3-diphenethyl-2,3-dihydro-1H-imidazol-4-yl)propanoyl)-N6-octanoyl-L-lysyl-L-phenylalanyl-L-tyrosine]", "values": [{"measurement": "ECmax (−fold induction over basal)", "result": "15 ± 2.12", "unit": "fold induction over basal"}]}
{"smiles": "CCCCCCCC(=O)NCCCC[C@H](NC(=O)[C@@H](N)CC1=CNCN1CCC1CCCCC1)C(=O)N[C@@H](Cc1ccccc1)C(=O)N[C@@H](Cc1ccc(O)cc1)C(=O)O", "note": "[HKFY-7, N2-((S)-2-amino-3-(3-(2-cyclohexylethyl)-2,3-dihydro-1H-imidazol-4-yl)propanoyl)-N6-octanoyl-L-lysyl-L-phenylalanyl-L-tyrosine]", "values": [{"measurement": "ECmax (−fold induction over basal)", "result": "16 ± 2.2", "unit": "fold induction over basal"}]}
{"smiles": "CCCCCCCC(=O)NCCCC[C@H](NC(=O)[C@@H](N)CC1=CN(CCC2CCCCC2)CN1CCC1CCCCC1)C(=O)N[C@@H](Cc1ccccc1)C(=O)N[C@@H](Cc1ccc(O)cc1)C(=O)O", "note": "[HKFY-8, N2-((S)-2-amino-3-(1,3-bis(2-cyclohexylethyl)-2,3-dihydro-1H-imidazol-4-yl)propanoyl)-N6-octanoyl-L-lysyl-L-phenylalanyl-L-tyrosine]", "values": [{"measurement": "ECmax (−fold induction over basal)", "result": "17.3±1.22", "unit": "fold induction over basal"}]}
{"smiles": "CCCCCCCC(=O)NCCCC[C@H](NC(=O)[C@@H](N)Cc1cn(CCc2ccccc2)cn1)C(=O)N[C@@H](Cc1ccccc1)C(=O)N[C@@H](Cc1ccc(O)cc1)C(=O)O", "note": "[HKFY-9, N6-octanoyl-N2-(Nt-phenethyl-L-histidyl)-L-lysyl-L-phenylalanyl-L-tyrosine]", "values": [{"measurement": "ECmax (−fold induction over basal)", "result": "21 ± 2.52", "unit": "fold induction over basal"}]}
{"smiles": "CCCCCCCC(=O)NCCCC[C@H](NC(=O)[C@@H](N)Cc1cn(CCC2CCCCC2)cn1)C(=O)N[C@@H](Cc1ccccc1)C(=O)N[C@@H](Cc1ccc(O)cc1)C(=O)O", "note": "[HKFY-11, N2-(Nt-(2-cyclohexylethyl)-L-histidyl)-N6-octanoyl-L-lysyl-L-phenylalanyl-L-tyrosine]", "values": [{"measurement": "ECmax (−fold induction over basal)", "result": "22 ± 2.2", "unit": "fold induction over basal"}]}
{"smiles": "C=C(CCCCCCC)NCCCC[C@H](NC(=O)[C@@H](N)Cc1cn(C(c2ccccc2)(c2ccccc2)c2ccccc2)cn1)C(=O)N[C@H](Cc1ccc(Cl)cc1)C(=O)N[C@@H](Cc1ccc(O)cc1)C(=O)O", "note": "[HKFY-13, ((R)-2-((S)-2-((S)-2-amino-3-(1-trityl-1H-imidazol-4-yl)propanamido)-6-(non-1-en-2-ylamino)hexanamido)-3-(4-chlorophenyl)propanoyl)-L-tyrosine]", "values": [{"measurement": "ECmax (−fold induction over basal)", "result": "25.7 ± 2.4", "unit": "fold induction over basal"}]}
{"smiles": "CCCCCCCC(=O)NCCCC[C@H](NC(=O)[C@H](N)Cc1cn(C(c2ccccc2)(c2ccccc2)c2ccccc2)cn1)C(=O)N[C@H](Cc1ccc(Cl)cc1)C(=O)N[C@H](Cc1ccc(O)cc1)C(=O)O", "note": "[HKFY-14, ((R)-2-((S)-2-((R)-2-amino-3-(1-trityl-1H-imidazol-4-yl)propanamido)-6-octanamidohexanamido)-3-(4-chlorophenyl)propanoyl)-D-tyrosine] (H-[dHis(Trt)]K(Octanoyl)[dPhe(4-Cl)][dY]-OH)", "values": [{"measurement": "ECmax (−fold induction over basal)", "result": "20.9 ± 1.4", "unit": "fold induction over basal"}]}
{"smiles": "CCCCCCCC(=O)NCCCC[C@H](NC(=O)[C@@H](N)Cc1cn(C(c2ccccc2)(c2ccccc2)c2ccccc2)cn1)C(=O)N[C@H](Cc1ccc(Cl)cc1)C(=O)N[C@H](Cc1ccc(O)cc1)C(=O)O", "note": "[HKFY-15, ((R)-2-((S)-2-((S)-2-amino-3-(1-trityl-1H-imidazol-4-yl)propanamido)-6-octanamidohexanamido)-3-(4-chlorophenyl)propanoyl)-D-tyrosine] (H-[His(Trt)]K(Octanoyl)[dPhe(4-Cl)][dY]-OH)", "values": [{"measurement": "ECmax (−fold induction over basal)", "result": "24.7 ± 2.6", "unit": "fold induction over basal"}]}
{"smiles": "CCCCCCCC(=O)NCCCC[C@@H](NC(=O)[C@@H](N)Cc1cn(C(c2ccccc2)(c2ccccc2)c2ccccc2)cn1)C(=O)N[C@H](Cc1ccc(Cl)cc1)C(=O)N[C@@H](Cc1ccc(O)cc1)C(=O)O", "note": "[HKFY-16, ((R)-2-((R)-2-((S)-2-amino-3-(1-trityl-1H-imidazol-4-yl)propanamido)-6-octanamidohexanamido)-3-(4-chlorophenyl)propanoyl)-L-tyrosine] (H-[His(Trt)][dK](Octanoyl)[dPhe(4-Cl)]Y-OH)", "values": [{"measurement": "ECmax (−fold induction over basal)", "result": "27.9 ± 3.4", "unit": "fold induction over basal"}]}
{"smiles": "CCCCCCCC(=O)NCCCC[C@H](NC(=O)[C@@H](N)Cc1cn(CCC(c2ccccc2)c2ccccc2)cn1)C(=O)N[C@@H](Cc1ccccc1)C(=O)N[C@@H](Cc1ccc(O)cc1)C(=O)O", "note": "[HKFY-17]", "values": [{"measurement": "ECmax (−fold induction over basal)", "result": "20 ± 0.57", "unit": "fold induction over basal"}]}
{"smiles": "CCCCCCCC(=O)NCCCC[C@H](NC(=O)[C@@H](N)Cc1cn(CC2c3ccccc3-c3ccccc32)cn1)C(=O)N[C@@H](Cc1ccccc1)C(=O)N[C@@H](Cc1ccc(O)cc1)C(=O)O", "note": "[HKFY-18]", "values": [{"measurement": "ECmax (−fold induction over basal)", "result": "10 ± 1.48", "unit": "fold induction over basal"}]}
{"smiles": "CCCCCCCC(=O)NCCCC[C@H](NC(=O)[C@@H](N)Cc1cn(C(c2ccccc2)c2ccc(OC)cc2)cn1)C(=O)N[C@@H](Cc1ccccc1)C(=O)N[C@@H](Cc1ccc(O)cc1)C(=O)O", "note": "(stereo partly drawn) [HKFY-20, N2-(Nt-((4-methoxyphenyl)(phenyl)methyl)-L-histidyl)-N6-octanoyl-L-lysyl-L-phenylalanyl-L-tyrosine]", "values": [{"measurement": "ECmax (−fold induction over basal)", "result": "20.26 ± 2.7", "unit": "fold induction over basal"}]}
{"smiles": "CCCCCCCC(=O)NCCCC[C@H](NC(=O)[C@@H](N)Cc1cn([C@H](c2ccccc2)c2ccc(Cl)cc2)cn1)C(=O)N[C@@H](Cc1ccccc1)C(=O)N[C@@H](Cc1ccc(O)cc1)C(=O)O", "note": "[HKFY-21, N2-(Nt-((R)-(4-chlorophenyl)(phenyl)methyl)-L-histidyl)-N6-octanoyl-L-lysyl-L-phenylalanyl-L-tyrosine]", "values": [{"measurement": "ECmax (−fold induction over basal)", "result": "18.3 ± 2.5", "unit": "fold induction over basal"}]}
{"smiles": "CCCCCCCC(=O)NCCCC[C@H](NC(=O)[C@@H](N)Cc1cn([C@H](c2ccccc2)c2ccc(C)cc2)cn1)C(=O)N[C@@H](Cc1ccccc1)C(=O)N[C@@H](Cc1ccc(O)cc1)C(=O)O", "note": "[HKFY-22, N6-octanoyl-N2-(Nt-((R)-phenyl(p-tolyl)methyl)-L-histidyl)-L-lysyl-L-phenylalanyl-L-tyrosine]", "values": [{"measurement": "ECmax (−fold induction over basal)", "result": "21.3 ± 1.8", "unit": "fold induction over basal"}]}
{"smiles": "CCCCCCCC(=O)NCCCC[C@H](NC(=O)[C@@H](N)Cc1cn(C23CC4CC(CC(C4)C2)C3)cn1)C(=O)N[C@@H](Cc1ccccc1)C(=O)N[C@@H](Cc1ccc(O)cc1)C(=O)O", "note": "[HKFY-23, N2-(Nt-(adamantan-1-yl)-L-histidyl)-N6-octanoyl-L-lysyl-L-phenylalanyl-L-tyrosine]", "values": [{"measurement": "ECmax (−fold induction over basal)", "result": "15 ± 1.37", "unit": "fold induction over basal"}]}
{"smiles": "CCCCCCCCCC(=O)NCCCC[C@H](NC(=O)[C@@H](N)Cc1cn(C(c2ccccc2)(c2ccccc2)c2ccccc2)cn1)C(=O)N[C@@H](Cc1ccccc1)C(=O)N[C@@H](Cc1ccc(O)cc1)C(=O)O", "note": "[HKFY-24, N6-decanoyl-N2-(Nt-trityl-L-histidyl)-L-lysyl-L-phenylalanyl-L-tyrosine] (H-[His(Trt)]K(Decanoyl)FY-OH)", "values": [{"measurement": "ECmax (−fold induction over basal)", "result": "7.03 ± 0.57", "unit": "fold induction over basal"}]}
{"smiles": "CCCCCCCCCCCC(=O)NCCCC[C@H](NC(=O)[C@@H](N)Cc1cn(C(c2ccccc2)(c2ccccc2)c2ccccc2)cn1)C(=O)N[C@@H](Cc1ccccc1)C(=O)N[C@@H](Cc1ccc(O)cc1)C(=O)O", "note": "[HKFY-25, N6-dodecanoyl-N2-(Nt-trityl-L-histidyl)-L-lysyl-L-phenylalanyl-L-tyrosine] (H-[His(Trt)]K(Lauroyl)FY-OH)", "values": [{"measurement": "ECmax (−fold induction over basal)", "result": "7.72 ± 0.57", "unit": "fold induction over basal"}]}
{"smiles": "CCCCCCCCCCCCCC(=O)NCCCC[C@H](NC(=O)[C@@H](N)Cc1cn(C(c2ccccc2)(c2ccccc2)c2ccccc2)cn1)C(=O)N[C@@H](Cc1ccccc1)C(=O)N[C@@H](Cc1ccc(O)cc1)C(=O)O", "note": "[HKFY-26, N6-tetradecanoyl-N2-(Nt-trityl-L-histidyl)-L-lysyl-L-phenylalanyl-L-tyrosine] (H-[His(Trt)]K(Myristoyl)FY-OH)", "values": [{"measurement": "ECmax (−fold induction over basal)", "result": "19.82 ± 0.57", "unit": "fold induction over basal"}]}
{"smiles": "CCCCCCCCCCCCCCCC(=O)NCCCC[C@H](NC(=O)[C@@H](N)Cc1cn(C(c2ccccc2)(c2ccccc2)c2ccccc2)cn1)C(=O)N[C@@H](Cc1ccccc1)C(=O)N[C@@H](Cc1ccc(O)cc1)C(=O)O", "note": "[HKFY-27, N6-palmitoyl-N2-(Nt-trityl-L-histidyl)-L-lysyl-L-phenylalanyl-L-tyrosine] (H-[His(Trt)]K(Palmitoyl)FY-OH)", "values": [{"measurement": "ECmax (−fold induction over basal)", "result": "20.4 ± 0.57", "unit": "fold induction over basal"}]}
{"smiles": "CCCCCCCC(=O)NCCCC[C@H](NC(=O)[C@@H](N)Cc1cn(C(c2ccccc2)(c2ccccc2)c2ccccc2)cn1)C(=O)N[C@H](Cc1ccc(F)cc1)C(=O)N[C@@H](Cc1ccc(O)cc1)C(=O)O", "note": "[HKFY-28, ((R)-2-((S)-2-((S)-2-amino-3-(1-trityl-1H-imidazol-4-yl)propanamido)-6-octanamidohexanamido)-3-(4-fluorophenyl)propanoyl)-L-tyrosine] (H-[His(Trt)]K(Octanoyl)[dPhe(4-F)]Y-OH)", "values": [{"measurement": "ECmax (−fold induction over basal)", "result": "22.95 ± 2.58", "unit": "fold induction over basal"}]}
{"smiles": "CCCCCCCC(=O)NCCCC[C@H](NC(=O)[C@@H](N)Cc1cn(C(c2ccccc2)(c2ccccc2)c2ccccc2)cn1)C(=O)N[C@H](Cc1ccc(Br)cc1)C(=O)N[C@@H](Cc1ccc(O)cc1)C(=O)O", "note": "[HKFY-29, ((R)-2-((S)-2-((S)-2-amino-3-(1-trityl-1H-imidazol-4-yl)propanamido)-6-octanamidohexanamido)-3-(4-bromophenyl)propanoyl)-L-tyrosine] (H-[His(Trt)]K(Octanoyl)[dPhe(4-Br)]Y-OH)", "values": [{"measurement": "ECmax (−fold induction over basal)", "result": "26.8 ± 1.87", "unit": "fold induction over basal"}]}
